These results are taken from publication PMC10127257, “Engineering mutually orthogonal PylRS/tRNA pairs for dual encoding of functional histidine analogues” (Protein Science : A Publication of the Protein Society, 2023).

The experiment has as its target T1, MaPylRS^IFGFF (Methanomethylophilus alvi, UniProt M9SC49, L125I/Y126F/M129G/V168F/Y206F).
T1 construct: gene MMALV_11280; C-terminal 6-His tag; pET29, E. coli BL21(DE3), Ni-NTA
As to the kind of experiment: X-ray crystallography, […] Å. The conditions noted are these: MgCl2, pH 8; three Mg2+ ions; triethylene glycol in the amino acid pocket. It counts as binding.

T1 sequence (M9SC49 entry or part of it L125I/Y126F/M129G/V168F/Y206F): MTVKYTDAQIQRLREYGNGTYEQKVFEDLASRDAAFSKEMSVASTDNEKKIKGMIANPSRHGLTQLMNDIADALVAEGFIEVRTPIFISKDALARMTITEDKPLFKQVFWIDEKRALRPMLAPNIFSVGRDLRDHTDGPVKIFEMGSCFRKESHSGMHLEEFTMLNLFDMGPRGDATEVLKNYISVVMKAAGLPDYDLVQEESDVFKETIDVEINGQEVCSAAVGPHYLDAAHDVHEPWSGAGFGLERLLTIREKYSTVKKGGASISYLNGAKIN

Turning to `Nc1ncnc2c1ncn2[C@@H]1O[C@H](COP(=O)(O)OP(=O)(O)NP(=O)(O)O)[C@@H](O)[C@H]1O` [AMP-PNP], the “X-ray crystallography, 1.8 Å” value is “bound to the nonreactive ATP analogue adenylyl‐imidodiphosphate (AMP‐PNP, PDB: 8C49”.
